What was measured:
[1] = cited from earlier work
[2] = Phase 1 first-in-human safety, tolerability and pharmacokinetic studies of Compound A in healthy subjects; format: in vivo
Experimental: (§1) In this study subjects with diabetic neuropathic pain were administered 100 mg BID up to 6 weeks and dosing has been completed. Nevertheless, if there is any new safety signal observed during this study, dosing of Compound A can be discontinued based on the joint decision of the investigators and study sponsor's medical monitor.
(§2) Single doses of Compound A up to 170 mg were well-tolerated in healthy subjects. The Compound A dose of 100 mg twice daily (BID) is the clinical dose used in the ongoing Phase 2a study in subjects with diabetic neuropathic pain. The dose of 100 mg is selected in the current study to explore the effect of Compound A in a microneurography model in order to bridge the efficacy outcome of Compound A in the Phase 2a study.
The safety, tolerability, and pharmacokinetics of Compound A in humans have been evaluated in 94 healthy adult subjects in the Phase 1 first-in-human (FIH) study with the single dose up to 170 mg and multiple doses up to 160 mg for 7 to 14 days. […] Given that Compound A is an investigational drug and this study will be conducted in diabetic patient population that generally has high risk factors, inclusion and exclusion have been carefully established to avoid exposing patients to undue risk. In addition, adequate safety monitoring procedures and stopping criteria are placed in the protocol.

[3] = biological target: T-type (Cav3.2) calcium channel (Homo sapiens, UniProt O95180); assay: T-type calcium channel block (statement of selectivity)
[4] = Ongoing Phase 2 efficacy and safety study in subjects with diabetic neuropathic pain; format: in vivo, human; conditions: 100 mg BID up to 6 weeks
Experimental: as §1, §2

[5] = 94 healthy adult subjects, single dose up to 170 mg, multiple doses up to 160 mg for 7 to 14 days

Sequence of T-type (Cav3.2) calcium channel (O95180 whole entry): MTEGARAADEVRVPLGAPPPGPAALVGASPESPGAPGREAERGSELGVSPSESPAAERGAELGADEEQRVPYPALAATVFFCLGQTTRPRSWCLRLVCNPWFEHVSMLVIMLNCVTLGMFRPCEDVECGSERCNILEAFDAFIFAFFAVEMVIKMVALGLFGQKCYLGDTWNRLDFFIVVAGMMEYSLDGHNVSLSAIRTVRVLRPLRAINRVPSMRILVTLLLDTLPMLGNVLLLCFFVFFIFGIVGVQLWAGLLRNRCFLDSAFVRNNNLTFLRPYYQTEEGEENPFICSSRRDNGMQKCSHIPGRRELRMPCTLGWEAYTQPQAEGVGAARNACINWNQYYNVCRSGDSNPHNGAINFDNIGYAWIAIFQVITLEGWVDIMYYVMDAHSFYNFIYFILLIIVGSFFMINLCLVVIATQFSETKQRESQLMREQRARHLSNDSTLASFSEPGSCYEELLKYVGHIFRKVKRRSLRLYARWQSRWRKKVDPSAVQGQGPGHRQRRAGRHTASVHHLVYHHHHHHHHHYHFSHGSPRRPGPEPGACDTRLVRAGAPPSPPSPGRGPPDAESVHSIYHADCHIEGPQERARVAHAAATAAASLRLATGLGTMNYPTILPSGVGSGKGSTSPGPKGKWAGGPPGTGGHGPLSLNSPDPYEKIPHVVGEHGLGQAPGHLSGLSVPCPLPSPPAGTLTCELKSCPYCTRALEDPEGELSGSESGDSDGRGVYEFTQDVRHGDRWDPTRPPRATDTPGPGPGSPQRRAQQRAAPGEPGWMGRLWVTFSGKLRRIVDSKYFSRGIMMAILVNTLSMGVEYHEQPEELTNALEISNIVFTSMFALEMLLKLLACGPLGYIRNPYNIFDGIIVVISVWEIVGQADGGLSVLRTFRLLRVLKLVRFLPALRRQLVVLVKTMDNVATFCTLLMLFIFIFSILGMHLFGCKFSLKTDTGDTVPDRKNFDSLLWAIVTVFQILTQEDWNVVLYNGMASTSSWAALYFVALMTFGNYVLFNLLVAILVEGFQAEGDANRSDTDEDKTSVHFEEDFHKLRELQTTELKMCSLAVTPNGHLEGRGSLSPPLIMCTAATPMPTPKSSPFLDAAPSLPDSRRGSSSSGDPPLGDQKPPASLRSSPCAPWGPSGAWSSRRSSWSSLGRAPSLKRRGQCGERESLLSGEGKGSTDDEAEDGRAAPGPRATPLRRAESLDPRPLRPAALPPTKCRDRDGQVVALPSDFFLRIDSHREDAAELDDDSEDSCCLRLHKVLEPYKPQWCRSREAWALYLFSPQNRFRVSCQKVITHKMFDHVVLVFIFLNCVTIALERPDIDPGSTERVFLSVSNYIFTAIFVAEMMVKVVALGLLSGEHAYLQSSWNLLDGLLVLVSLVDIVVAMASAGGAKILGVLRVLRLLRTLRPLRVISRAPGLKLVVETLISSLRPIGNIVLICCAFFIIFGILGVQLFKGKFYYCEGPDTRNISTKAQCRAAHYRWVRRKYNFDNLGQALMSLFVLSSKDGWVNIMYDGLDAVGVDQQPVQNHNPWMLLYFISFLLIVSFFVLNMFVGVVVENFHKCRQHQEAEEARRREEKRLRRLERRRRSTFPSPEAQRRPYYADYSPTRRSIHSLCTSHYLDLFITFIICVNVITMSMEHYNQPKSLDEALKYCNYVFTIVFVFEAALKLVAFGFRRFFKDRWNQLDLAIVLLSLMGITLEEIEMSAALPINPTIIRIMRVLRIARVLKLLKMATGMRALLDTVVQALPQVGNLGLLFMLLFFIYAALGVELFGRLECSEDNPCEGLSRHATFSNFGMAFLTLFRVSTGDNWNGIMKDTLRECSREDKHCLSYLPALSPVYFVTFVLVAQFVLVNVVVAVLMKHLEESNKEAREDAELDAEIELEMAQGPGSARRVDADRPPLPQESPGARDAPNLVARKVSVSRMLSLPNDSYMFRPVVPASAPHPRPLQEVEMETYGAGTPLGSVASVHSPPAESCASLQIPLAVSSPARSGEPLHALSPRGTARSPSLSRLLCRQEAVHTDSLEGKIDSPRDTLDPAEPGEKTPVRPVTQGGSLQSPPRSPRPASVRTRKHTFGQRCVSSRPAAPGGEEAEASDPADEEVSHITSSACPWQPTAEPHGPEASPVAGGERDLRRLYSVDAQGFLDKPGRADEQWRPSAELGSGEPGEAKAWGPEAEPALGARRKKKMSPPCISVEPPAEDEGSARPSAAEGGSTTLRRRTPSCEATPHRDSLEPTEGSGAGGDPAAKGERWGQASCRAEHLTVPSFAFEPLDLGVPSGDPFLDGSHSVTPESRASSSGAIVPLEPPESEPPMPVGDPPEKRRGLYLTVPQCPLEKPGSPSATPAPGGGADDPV

Compound | effect on pain ([1]; IV infusion 2 mg/kg or 5 mg/kg, patients with painful diabetic neuropathy) | pain relief versus placebo ([1]; IV infusion 5 mg/kg, patients with painful diabetic neuropathy) | duration of pain relief following infusion ([1]; patients with diabetic neuropathy) | effect of systemic administration in neuropathic pain conditions ([1]; systemic administration, several neuropathic pain conditions) | tolerability ([2]; 94 healthy adult subjects, single dose up to 170 mg and multiple doses up to 160 mg for 7 to 14 days) | dose dependence of occurrence of adverse events [2, 5] | findings in vital signs, ECG and laboratory tests [2, 5] | severity of adverse events [2, 5] | safety findings ([2]; Phase 1 studies in healthy adults and healthy elderly subjects) | adverse drug reactions in the current clinical program ([2]; current clinical program) | tolerability of single doses ([2]; single doses up to 170 mg, healthy subjects) | selectivity as calcium channel blocker [3] | safety findings [4]
CCN(CC)CC(=O)Nc1c(C)cccc1C [Lidocaine] | reduction of pain | consistent superiority to placebo | up to 21 days | analgesic effects | – | – | – | – | – | – | – | – | –
O=C(c1cc(S(=O)(=O)Nc2ccccc2F)c(F)cc1Cl)N1CCN2CCC[C@@H]2C1 [Compound A, 4-chloro-2-fluoro-N-(2-fluorophenyl)-5-[(8aR)-hexahydropyrrolo[1,2-a]pyrazin-2(1H)-ylcarbonyl]benzenesulfonamide] | – | – | – | – | well tolerated | does not appear to be dose-dependent | no clinically relevant findings | mild except one event | no clinically important safety findings | no adverse drug reactions identified | well-tolerated | highly selective | no clinically important safety findings

Source: US20130178477A1, “METHODS OF TREATING DIABETIC NEUROPATHY USING BENZENESULFONAMIDES” (AbbVie Inc., priority 2012, published 2013)
